Data: PMC7031302, “Design and synthesis of new energy restriction mimetic agents: Potent anti-tumor activities of hybrid motifs of aminothiazoles and coumarins” (Scientific Reports, 2020)

Tests used:
[1] = test system: HT-29; test: ROS-Glo H2O2 assay, HT-29; assay type: cell-based, Human; conditions: HT-29, 6 h incubation
Text: (§1) According to previous studies, ERMAs inhibited glucose utilization in cancer cells[13],[19]. Therefore, we investigated glucose uptake (Fig. 5A) upon treatment with 9b and 9f in HT-29 and HCT116 cells at different concentrations based on the IC50 of each compound. […] This effect is known to result in the accumulation of reactive oxygen species (ROS) and could play a role in glucose deprivation-induced cytotoxicity and oxidative stress in cancer cells. […] The observed increase in ROS levels could lead to oxidative stress and extensive cell death in the absence of NADPH detoxification.
(§2) NADPH/NADP+ and ROS concentrations were measured using the NADP/NADPH-Glo Assay Kit (Promega, Madison, WI, USA) and ROS-Glo H2O2 Assay (Promega, Madison, WI, USA), respectively, based on the manufacturer instructions. In NADPH/NADP+ assay, CRC cells were seeded into a 96-well flat-bottomed plate and incubated overnight. On the following day, cells were treated with the testing compound or vehicle for 48 h. At the endpoint of treatment, the media were aspirated and replaced with 60 µl PBS/well, then cells were lysed in 60 µl base solution with 1% dodecyl (trimethyl) ammonium bromide (Sigma-Aldrich-St. Louis, MO, USA). […] Luminescence was measured after 30 minutes using Varioskan Flash multimode reader (Thermo Scientific). […] Luminescence was measured after 20 min incubation at room temperature.

[2] = test system: HCT116; test: ROS-Glo H2O2 assay, HCT116; assay type: cell-based, Human; conditions: HCT116, 6 h incubation
Text: as §1, §2

[3] = test system: normal fibroblast cell line (F180); test: MTT cell viability, normal fibroblasts F180; assay type: cell-based; conditions: Homo sapiens, read-out: IC50 on normal cells
Protocol: The potential cytotoxicity of 24 candidate compounds was initially evaluated at a single concentration level (5 μM). Then a full dose-response curve was plotted for each compound against different colorectal cancer cell lines (HCT116 and HT-29) by MTT assay after 72 h treatments. 4-hydroxycoumarin, OSU-CG5, and OSU-CG12 were used as positive controls. […] Compounds 9b, 9c, 9f, 9i, 11b, and 11c were selected for further studies to determine the full dose-response survival curves using different concentrations (0.1–20 µM) against CRC cell lines and normal fibroblast cell line (F180) at different time points (Fig. 2A–2F and supplementary material Page S63 and S64).
Human colorectal carcinoma cell lines (HCT116) and (HT-29) were obtained from the European Collection of Cell Cultures (ECACC, UK). The cell lines were cultured in Roswell Park Memorial Institute medium (RPMI-1640, Sigma-Aldrich-St. Louis, MO, USA) supplemented with 10% fetal bovine serum (Sigma-Aldrich-St. Louis, MO, USA) and 1% penicillin/streptomycin (Sigma-Aldrich- Louis, MO, USA). […]
Cell viability was assessed using, 3-(4,5-dimethylthiazol-2-yl)-2,5-diphenyltetrazolium bromide (MTT) assay as previously described. […] The reduced MTT crystals were solubilized in 200 µl/well of DMSO and the absorbance was measured at 570 nm using a microplate reader (Thermo-Scientific, Vantaa, Finland).

SMILES: Cc1cc(=O)oc2cc(Nc3nc(-c4ccc(Br)cc4)cs3)ccc12 [Compound 9b, 7-(4-(4-Bromophenyl)thiazol-2-ylamino)-4-methyl-2H-chromen-2-one]
- generation of hydrogen peroxide (H2O2) and ROS [1]: significantly increased
- generation of hydrogen peroxide (H2O2) and ROS [2]: significantly increased

SMILES: Cc1cc(=O)oc2cc(Nc3nc(-c4cccc([N+](=O)[O-])c4)cs3)ccc12 [Compound 9f, 4-Methyl-7-(4-(3-Nitrophenyl)thiazol-2-ylamino)-2H-chromen-2-one]
- IC50 [3]: 7.97 µM
- generation of hydrogen peroxide (H2O2) and ROS [2]: significantly increased
